Results published in patent publication US20100209508A1, “Substituted Phenylphosphates as Mutual Prodrugs of Steroids and ß-Agonists for the Treatment of Title Pulmonary Inflammation and Bronchoconstriction” (CORUS PHARMA, INC., priority 2005, published 2010).
Read-outs that look alike come from different tables or passages of the source.

How the values were obtained:
TNF-α = TNF-α secretion (h) (PBMC); assay type: cell-based, human; details: LPS (1 μg/ml), 24 h/37° C., EIA, "Not active" = less than 25% inhibition at highest tested concentration 1000 nM; for IC50: read-out: TNF-α secretion IC50
[1] = tested on: splenic lymphocytes isolated from C57BL/6 mice and CBA mice; test: Immunosuppression ([3H]TMD incorporation in mouse splenic lymphocytes); assay type: cell-based; details: "Not active" = less than 25% inhibition at 1000 nM
IL-1β = IL-1β secretion (h) (PBMC); assay type: cell-based; details: Homo sapiens, LPS (1 μg/ml), 24 h/37° C., EIA
cytokine release = test: Panel of standard cell-based in vitro assays evaluating cytokine release inhibition; details: prodrugs compared to the steroid drugs (Examples 27 and 62, respectively)
Protocol: The selected compounds of the invention were tested in a panel of standard, cell-based in vitro assays evaluating the cytokine release inhibition and thus the anti-inflammatory activity of a test article. Several potent steroid analogs were identified, namely compounds described in Examples 23, 27, 43, 59 and 62. […] Therefore by masking the pharmacological properties of a respective steroid the mutual prodrug mitigates the oropharyngeal side effects and confines the antiinflammatory activity of a steroid to the endobronchial space, where the lung enzymes (specifically alkaline phosphatase) release the pharmacologically active steroid (see Examples 141-143).

alkaline phosphatase = test: Conversion of mutual prodrugs after exposure to alkaline phosphatase (ALP experiment); details: for Steroid 13 Concentration / Salmeterol Concentration: mutual prodrug 16 + alkaline phosphatase;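 as to all read-outs here: mutual prodrug and its released products quantified by LCMS over time in buffer with alkaline phosphatase, compared against enzyme-free control buffer, incubations running 25–50 hours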
Protocol: Reaction and control solutions were prepared by adding a 500 μL aliquot of a ˜200 ng/μl solution in 1:1 acetonitrile/water of and the compound 16 (or alternatively 17) to 500 μl of a pH 7.4 buffer solution, containing 5 mM tris(hydroxymethyl)aminomethane, 1 mM ZnCl2, 1 mM MgCl2. For the reaction solutions, the buffer also contained approximately 600 ng/μl of alkaline phosphatase (Sigma-Aldrich) whereas the control buffer solutions contained no enzyme. The reaction and control solutions were incubated at 37° C. for 25 to 50 hours. The solutions were analyzed periodically for the respective mutual prodrug and reaction products by LCMS.
The concentration of the alkaline phosphatase in the reaction buffer was ˜600 ng/μL (the enzyme activity of the solution was not determined).
The concentration of the alkaline phosphatase in the buffer added to the stock solution was ˜600 ng/μl (the enzyme activity of the solution was not determined).

[2] = Mus musculus, Splenic lymphocyte, read-out: Immunosuppresion IC50, mouse splenic lymphocytes, 72 h/37° C., [3H]TMD incorporation
[3] = read-out: Immunosuppresion IC50, mouse splenic lymphocytes, 72 h/37° C., [3H]TMD incorporation

Compound | TNF-α secretion IC50 (TNF-α) | IC50 [1, 2] | IC50 (IL-1β) | anti-inflammatory activity (cytokine release inhibition), assessment in words (cytokine release) | IC50 (TNF-α; Homo sapiens, 24 h) | further results
C[C@]12C=CC(=O)C=C1CC[C@H]1[C@@H]3C[C@H]4O[C@@H](C5CCCCC5)O[C@@]4(C(=O)CSc4ccncc4)[C@@]3(C)C[C@H](O)[C@@]12F [Example 47, 16,17-[(Cyclohexylmethylene)bis(oxy)]-9-fluoro-11-hydroxy-21-(pyridin-4-yl-thio)-pregna-1,4-diene-3,20-dione[11β,16α(R)]] | Not active | 0.066 µM |  |  |  | 
CN1CCN(CC(=O)[C@@]23O[C@H](C4CCCCC4)O[C@@H]2C[C@H]2[C@@H]4CCC5=CC(=O)C=C[C@]5(C)[C@@]4(F)[C@@H](O)C[C@@]23C)CC1 [Example 27, 16,17-[(Cyclohexylmethylene)bis(oxy)]-9-fluoro-11-hydroxy-21-(4-methylpiperazyn-1-yl)-pregna-1,4-diene-3,20-dione[11β,16α(R)]] | Not active | 0.012 µM | 0.036 µM | potent |  | Steroid 13 Concentration (alkaline phosphatase; 0.00 Hours @ 37° C.): 0.0 nmol/mL; Steroid 13 Concentration (alkaline phosphatase; 0.59 Hours @ 37° C.): 1.6 nmol/mL; Steroid 13 Concentration (alkaline phosphatase; 1.19 Hours @ 37° C.): 4.1 nmol/mL; Steroid 13 Concentration (alkaline phosphatase; 2.96 Hours @ 37° C.): 15.3 nmol/mL; Steroid 13 Concentration (alkaline phosphatase; 3.56 Hours @ 37° C.): 20.2 nmol/mL; Steroid 13 Concentration (alkaline phosphatase; 4.15 Hours @ 37° C.): 21.6 nmol/mL; Steroid 13 Concentration (alkaline phosphatase; 10.67 Hours @ 37° C.): 49.5 nmol/mL; Steroid 13 Concentration (alkaline phosphatase; 15.41 Hours @ 37° C.): 54.6 nmol/mL; Steroid 13 Concentration (alkaline phosphatase; 19.56 Hours @ 37° C.): 62.9 nmol/mL; Steroid 13 Concentration (alkaline phosphatase; 24.30 Hours @ 37° C.): 67.3 nmol/mL; Steroid 13 Concentration (alkaline phosphatase; 30.82 Hours @ 37° C.): 69.3 nmol/mL; Steroid 13 Concentration (alkaline phosphatase; 34.97 Hours @ 37° C.): 66.5 nmol/mL
C[C@]12C=CC(=O)C=C1CC[C@@H]1[C@@H]2[C@@H](O)C[C@@]2(C)[C@H]1C[C@H]1O[C@@H](C3CCCCC3)O[C@]12C(=O)CO [Example 22, 16,17-[(Cyclohexylmethylene)bis(oxy)]-11,21-dihydroxypregna-1,4-diene-3,20-dione[11β,16α(R)]] |  | 0.0015 µM | 0.0021 µM |  | 0.012 µM | 
C[C@]12C=CC(=O)C=C1CC[C@H]1[C@@H]3C[C@H]4O[C@@H](C5CCCCC5)O[C@@]4(C(=O)CN4CCC4)[C@@]3(C)C[C@H](O)[C@@]12F [Example 43, 16,17-[(Cyclohexylmethylene)bis(oxy)]-9-fluoro-11-hydroxy-21-(azetidin-1-yl)-pregna-1,4-diene-3,20-dione[11β,16α(R)]] |  | 0.0088 µM |  | potent | > 1 µM | 
CN1CCC(C2O[C@@H]3C[C@H]4[C@@H]5CCC6=CC(=O)C=C[C@]6(C)[C@H]5[C@@H](O)C[C@]4(C)[C@]3(C(=O)CO)O2)CC1 (stereo partly drawn) [Example 56, 16,17-[(1-Methylpiperidyl-4-methylene)bis(oxy)]-11,21-dihydroxypregna-1,4-diene-3,20-dione[11β,16α]] | Not active |  | > 1 µM |  |  | Immunosuppresion IC50 ([1]; mouse splenic lymphocytes, 72 h/37° C., [3H]TMD incorporation): Not active
C[C@]12C=CC(=O)C=C1CC[C@H]1[C@@H]3C[C@H]4O[C@@H](C5CCCCC5)O[C@@]4(C(=O)CN4CCOCC4)[C@@]3(C)C[C@H](O)[C@@]12F [Example 34, 16,17-[(Cyclohexylmethylene)bis(oxy)]-9-fluoro-11-hydroxy-21-(4-morpholin-1-yl)-pregna-1,4-diene-3,20-dione[11β,16α(R)]] |  | 0.02 µM |  |  | > 1 µM | 
C[C@]12C=CC(=O)C=C1CC[C@H]1[C@@H]3C[C@H]4OC(c5cccnc5)O[C@@]4(C(=O)CO)[C@@]3(C)C[C@H](O)[C@@]12F (single isomer, unassigned) [Example 22S-epimer] |  |  |  |  |  | IC50 (TNF-α): > 1 µM; IC50 [1, 3]: 0.036 µM
C[C@]12C=CC(=O)C=C1CC[C@@H]1[C@@H]2[C@@H](O)C[C@@]2(C)[C@H]1C[C@H]1OC(c3cccnc3)O[C@]12C(=O)CO (stereo partly shown) [Example 59] |  | 0.002 µM |  | potent | 0.085 µM | 
C[C@]12C=CC(=O)C=C1CC[C@H]1[C@@H]3C[C@H]4OC(c5cccnc5)O[C@@]4(C(=O)CO)[C@@]3(C)C[C@H](O)[C@@]12F (stereo partly shown) [Example 62] |  |  | 0.35 µM | potent |  | IC50 (TNF-α): 0.011 µM; IC50 [1, 3]: 0.0019 µM; Steroid 14 Concentration (alkaline phosphatase; mutual prodrug 17 + alkaline phosphatase, 2.10 Hours @ 37° C.): 22.6 nmol/mL
C[C@]12C=CC(=O)C=C1CC[C@H]1[C@@H]3C[C@H]4O[C@@H](C5CCCCC5)O[C@@]4(C(=O)CO)[C@@]3(C)C[C@H](O)[C@@]12F [Example 23, 16,17-[(Cyclohexylmethylene)bis(oxy)]-9-fluoro-11,21-dihydroxypregna-1,4-diene-3,20-dione[11β,16α(R)]] |  | 0.00034 µM |  | potent | 0.0012 µM | 
CN1CCN(CC(=O)[C@@]23O[C@H](C4CCCCC4)O[C@@H]2C[C@H]2[C@@H]4CCC5=CC(=O)C=C[C@]5(C)[C@H]4[C@@H](O)C[C@@]23C)CC1 [Example 26, 16,17-[(Cyclohexylmethylene)bis(oxy)]-11-hydroxy-21-(4-methylpiperazyn-1-yl)-pregna-1,4-diene-3,20-dione[11β,16α(R)]] | Not active | 0.031 µM | > 1 µM |  |  | 
C[C@]12C=CC(=O)C=C1CC[C@H]1[C@@H]3C[C@H]4OC(c5cccnc5)O[C@@]4(C(=O)CO)[C@@]3(C)C[C@H](O)[C@@]12F (single isomer, unassigned) [Example 22R-epimer] |  |  |  |  |  | IC50 (TNF-α): 0.012 µM; IC50 [1, 3]: 0.00089 µM
CN1CCC(C2O[C@@H]3C[C@H]4[C@@H]5CCC6=CC(=O)C=C[C@]6(C)[C@@]5(F)[C@@H](O)C[C@]4(C)[C@]3(C(=O)CO)O2)CC1 (stereo partly drawn) [Example 57, 16,17-[(1-Methylpiperidyl-4-methylene)bis(oxy)]-9-fluoro-11,21-dihydroxypregna-1,4-diene-3,20-dione[11β,16α]] | Not active | > 1 µM | > 1 µM |  |  | 
C[C@]12C=CC(=O)C=C1CC[C@H]1[C@@H]3C[C@H]4O[C@@H](C5CCCCC5)O[C@@]4(C(=O)Cn4ccnc4)[C@@]3(C)C[C@H](O)[C@@]12F [Example 45, 16,17-[(Cyclohexylmethylene)bis(oxy)]-9-fluoro-11-hydroxy-21-(imidazol-1-yl)-pregna-1,4-diene-3,20-dione[11β,16α(R)]] | Not active | > 1 µM |  |  |  | 
OCc1cc(C(O)CNCCCCCCOCCCCc2ccccc2)ccc1O (stereo not shown) [Salmeterol, salmeterol, reference compound] |  |  |  |  |  | Salmeterol Concentration (alkaline phosphatase; 0.00 Hours @ 37° C.): 0.1 nmol/mL; Salmeterol Concentration (alkaline phosphatase; 0.59 Hours @ 37° C.): 1.8 nmol/mL; Salmeterol Concentration (alkaline phosphatase; 1.19 Hours @ 37° C.): 4.4 nmol/mL; Salmeterol Concentration (alkaline phosphatase; 2.96 Hours @ 37° C.): 12.3 nmol/mL; Salmeterol Concentration (alkaline phosphatase; 3.56 Hours @ 37° C.): 14.4 nmol/mL; Salmeterol Concentration (alkaline phosphatase; 4.15 Hours @ 37° C.): 17.1 nmol/mL; Salmeterol Concentration (alkaline phosphatase; 10.67 Hours @ 37° C.): 34.2 nmol/mL; Salmeterol Concentration (alkaline phosphatase; 15.41 Hours @ 37° C.): 41.4 nmol/mL; Salmeterol Concentration (alkaline phosphatase; 19.56 Hours @ 37° C.): 44.8 nmol/mL; Salmeterol Concentration (alkaline phosphatase; 24.30 Hours @ 37° C.): 46.9 nmol/mL; Salmeterol Concentration (alkaline phosphatase; 30.82 Hours @ 37° C.): 48.1 nmol/mL; Salmeterol Concentration (alkaline phosphatase; 34.97 Hours @ 37° C.): 49.6 nmol/mL
